Source: EP0166986A1, “Disubstituted 3,7-diaryl-1,5,3,7-dioxadiazocines, and process for their preparation” (Deutsches Krebsforschungszentrum Stiftung des öffentlichen …, priority 1984, dated 1986)

What was measured:
[1] = system: TA98; assay: Mutagenicity test (Ames test), preincubation with or without rat liver S9; format: cell-based, S. Typhimurium
Experimental: (§1) • a) Mutagenitätsprüfungen Die Versuchsverbindung, gelöst in 40 µl an Dimethylsulphoxid und 100 µl eines Übernacht-Kulturmediums wurde zu 500 µl eines S9-Gemisches gegeben das 100 µl Leber S9 von mit Aroclor behandelten männlichen BD VI Ratten, 50 µl 0,15 M KC1 - 5 mM Sørensen Puffer pH 7,4 , […] Sørensen Phosphat Puffer (pH 7,4), […] NADP^+, 2,5 µmol Glukose-6-phosphat und […] MgC12 enthält. Das Gemisch wurde bei 37°C 30 Minuten lang unter Schütteln vorinkubiert und dann mit 2 ml histidinarmem Weichagar für die Plattenbildung auf minimalem Glukoseagar kombiniert. Die Anzahl der Revertanten wurde nach 48-stündiger Inkubation bei 37°C gezählt.
(§2) Mutagenität von synthetischen zyklischen Dioxadiazocinen in S. Typhimurium Stämmen. • a) Die meisten Zahlen entsprechen Mittelwerten aus zwei Versuchsreihen, die je dreifach gemacht wurden. Die Anzahl der spontanen Revertanten pro Platte (in Gegenwart des Lösungsmittels) wurde abgezogen. • b) AS: die Versuche wurden in Gegenwart (+) oder in Abwesenheit (-) eines metabolischen Aktivierungssystems aus S9 Rattenleber durchgeführt. • c) Die Konzentration bei welcher die untersuchten Verbindungen in S9-Mischung ausfielen.

[2] = system: TA100; assay: as above; format: cell-based, S. Typhimurium
Experimental: as §1, §2

[3] = system: S. Typhimurium Stämmen; assay: Mutagenicity test (Ames test), summary statements not tied to one strain; format: cell-based; conditions: for Mutagenität: S. Typhimurium strains, overall result in words
Experimental: as §1, §2

[4] = TA98, +AS (rat liver S9), 30 µg pro Platte, spontaneous revertants subtracted
[5] = TA98, +AS (rat liver S9), 100 µg pro Platte, spontaneous revertants subtracted (pp'-CH3O CO precipitated in S9 mix)
[6] = TA98, +AS (rat liver S9), 300 µg pro Platte, compounds precipitated in S9 mix, spontaneous revertants subtracted
[7] = TA98, -AS, 30 µg pro Platte, spontaneous revertants subtracted
[8] = TA98, -AS, 100 µg pro Platte, spontaneous revertants subtracted
[9] = TA98, -AS, 300 µg pro Platte, spontaneous revertants subtracted
[10] = TA100, +AS (rat liver S9), 30 µg pro Platte, spontaneous revertants subtracted
[11] = TA100, +AS (rat liver S9), 100 µg pro Platte, spontaneous revertants subtracted (pp'-CH3O CO precipitated in S9 mix)
[12] = TA100, +AS (rat liver S9), 300 µg pro Platte, compounds precipitated in S9 mix, spontaneous revertants subtracted
[13] = TA100, -AS, 30 µg pro Platte, spontaneous revertants subtracted
[14] = TA100, -AS, 100 µg pro Platte, spontaneous revertants subtracted
[15] = TA100, -AS, 300 µg pro Platte, spontaneous revertants subtracted

Compound	Anzahl der Revertanten pro Platte [1, 4] [Revertanten pro Platte]	Anzahl der Revertanten pro Platte [1, 5] [Revertanten pro Platte]	Anzahl der Revertanten pro Platte [1, 6] [Revertanten pro Platte]	Anzahl der Revertanten pro Platte [1, 7] [Revertanten pro Platte]	Anzahl der Revertanten pro Platte [1, 8] [Revertanten pro Platte]	Anzahl der Revertanten pro Platte [1, 9] [Revertanten pro Platte]	Anzahl der Revertanten pro Platte [2, 10] [Revertanten pro Platte]	Anzahl der Revertanten pro Platte [2, 11] [Revertanten pro Platte]	Anzahl der Revertanten pro Platte [2, 12] [Revertanten pro Platte]	Anzahl der Revertanten pro Platte [2, 13] [Revertanten pro Platte]	Anzahl der Revertanten pro Platte [2, 14] [Revertanten pro Platte]	Anzahl der Revertanten pro Platte [2, 15] [Revertanten pro Platte]	Mutagenität [3]	also measured
FC(F)(F)c1ccc(N2COCN(c3ccc(C(F)(F)F)cc3)COC2)cc1 [pp'-CF3, para-Trifluormethyl-3,7-diphenyl-1,5,3,7-dioxadiazocin]	10	14	24	0	0	2	44	86	98	8	14	5	mutagen	Anzahl der Revertanten pro Platte ([1]; TA98, +AS (rat liver S9), 1000 µg pro Platte, compound precipitated in S9 mix, spontaneous revertants subtracted): 12 Revertanten pro Platte; Anzahl der Revertanten pro Platte ([1]; TA98, -AS, 1000 µg pro Platte, spontaneous revertants subtracted): 0 Revertanten pro Platte; Anzahl der Revertanten pro Platte ([2]; TA100, +AS (rat liver S9), 1000 µg pro Platte, compound precipitated in S9 mix, spontaneous revertants subtracted): 96 Revertanten pro Platte; Anzahl der Revertanten pro Platte ([2]; TA100, -AS, 1000 µg pro Platte, spontaneous revertants subtracted): 1 Revertanten pro Platte; Mutagenität ([2]; TA100, in presence of metabolic activation system, result in words): schwach mutagen
O=[N+]([O-])c1ccc(N2COCN(c3ccc([N+](=O)[O-])cc3)COC2)cc1 [pp'-NO2]	88	280	507	163	373	839	78	195	357	31	100	206	mutagen	Anzahl der Revertanten pro Platte ([1]; TA98, +AS (rat liver S9), 10 µg pro Platte, spontaneous revertants subtracted): 37 Revertanten pro Platte; Anzahl der Revertanten pro Platte ([1]; TA98, -AS, 10 µg pro Platte, spontaneous revertants subtracted): 65 Revertanten pro Platte; Mutagenität (Vergleich der Verbindungen) ([1]; TA98, rank among the three tested compounds): aktivste Verbindung; direkte Mutagenität ([1]; without metabolic activation, TA98 compared with TA100): höher in TA98; Anzahl der Revertanten pro Platte ([2]; TA100, +AS (rat liver S9), 10 µg pro Platte, spontaneous revertants subtracted): 22 Revertanten pro Platte; Anzahl der Revertanten pro Platte ([2]; TA100, -AS, 10 µg pro Platte, spontaneous revertants subtracted): 13 Revertanten pro Platte; Mutagenität (Vergleich der Verbindungen) ([2]; TA100, rank among the three tested compounds): aktivste Verbindung; Mutagenität der reaktiven metabolischen Spezies ([2]; with metabolic activation, TA100 compared with TA98): nur in TA100 mutagen oder stärker mutagen; direkte Mutagenität ([3]; without metabolic activation, result in words): direkt mutagen
